Patent US6201006A, “Aromatic amidine derivatives useful as selective thrombin inhibitors” (C & C Research Laboratories, priority 1996, dated 2001)

Key:
[1] = test system: thrombin time (TT) in rat plasma; experiment: Thrombin time (TT) in rat plasma after oral administration; type: in vivo, SD male rats; conditions: TT after / TT before administration
Method: SD male rats weighing 220±20 g which had fasted overnight were used as experimental animals. Blood taken from the hearts of the experimental animals just before administration of the test compound and at 30, 60, 120 and 240 minutes after oral administration of the test compound was mixed with 0.108M sodium citrate in the ratio of 9:1. The mixtures thereby obtained were centrifuged at 15,000 rpm for 5 minutes at 4° C. to separate the plasma, which was stored at -20° C. until the TT was measured by means of the method described below.
200 μl of Owren's buffer was added to 50 μl of the plasma and 100 μl of the diluted plasma thereby obtained was injected into the vial of a coagulometer and then incubated for 2 minutes at 37° C. To each vial was added 100 μl of thrombin at a concentration of 20 U/ml, which had prewarmed at 37° C., to measure the time (TT) until clotting occurred. The ratio of the TT in rat plasma after administration of the test compound to the TT in rat plasma before administration of the test compound was calculated.

[2] = molecular target: T1, human thrombin (Homo sapiens, UniProt P00734); experiment: Inhibitory activity for thrombin (chromogenic substrate hydrolysis, 405 nm); type: biochemical; conditions: for Selectivity (trypsin/thrombin): IC50 for trypsin divided by IC50 for thrombin; for IC50: human thrombin, 20 min, pH 8.0, N-benzoyl-Phe-Val-Arg-p-nitroanilide
T1 construct: purchased Sigma T-6759
Method: 20 μl of each compound of the present invention was dissolved in 50% methanol in various concentrations and then added to each well of a microplate, to each of which 160 μl of the reaction medium containing 125 mM NaCl, 50 mM Tris-HCl (pH 8.0) and 2 mM synthetic substrate (N-benzoyl-Phe-Val-Arg-p-nitroanilide, Sigma B-7632) were added. 20 μl of human thrombin solution (5 units/ml, Sigma T-6759, manufactured by Sigma Co.) containing 0.1% bovine serum albumin was added to each well to initiate the enzymatic reaction. After 20 minutes, the hydrolysis of substrate was determined by measuring the absorbance at 405 nm. […] The selectivity index was calculated by dividing the IC50 value for trypsin by the IC50 value for thrombin. The thrombin inhibitory activity and the trypsin inhibitory activity for the compound of the present invention are shown in the following Table 2.

[3] = test system: trypsin; experiment: Inhibitory activity for trypsin; type: biochemical

Compound	Plasma TT ratio after administration to rat ([1]; 30 mg/kg oral)	Plasma TT ratio after administration to rat ([1]; 50 mg/kg oral)	Plasma TT ratio after administration to rat ([1]; 100 mg/kg oral)	Selectivity (trypsin/thrombin) [2]	IC50 [2] [nM]	IC50 [3] [nM]
CCOC(=O)CN1CCC[C@@H]1C(=O)N1CCC[C@H]1CCc1cc2ccc(C(=N)N)cc2n1CC [Compound 86, ethyl 2-[(R)-2-[[(S)-2-[2-(6-amidino-1-ethylindol-2-yl)ethyl]pyrrolidinyl]carbonyl]pyrrolidinyl]acetate]	1.49	4.51	5.19	25.0	27	
CCn1c(CC[C@@H]2CCCN2C(=O)[C@H]2CCCN2CC(N)=O)cc2ccc(C(=N)N)cc21 [Compound 114, 1-ethyl-2-[2-[(S)-1-[[(R)-1-(carbamo-ylmethyl)pyrrolidin-2-yl]carbonyl]pyrrolidin-2-yl]ethyl]indole-6-carboxamidine]				28.8	17.4	500
CCn1c(CC[C@@H]2CCCN2C(=O)[C@H]2CCCN2C(CCO)C(N)=O)cc2ccc(C(=N)N)cc21 (stereo partly drawn) [Compound 117, 1-ethyl-2-[2-[(S)-1-[[(R)-1-(1-carbamoyl-3-hydroxypropyl)pyrrolidin-2-yl]carbonyl]pyrrolidin-2-yl]-ethyl]indole-6-carboxamidine]				48.6	16.7	811
CCn1c(CCC2CCCN2C(=O)C2CCCN2C(CCO)C(=O)O)cc2ccc(C(=N)N)cc21 [Compound 118, 2-[(R)-2-[[(S)-2-[2-(6-amidino-1-ethylindol-2-yl)ethyl]pyrrolidinyl]carbonyl]pyrrolidinyl]-4-hydroxy-butanoic acid]		8.80		14.5	12.3	
CCn1c(CC[C@@H]2CCCN2C(=O)[C@H]2CCCN2C2CCOC2=O)cc2ccc(C(=N)N)cc21 (stereo partly drawn) [Compound 125, 1-ethyl-2-[2-[(S)-1-[[(R)-1-(2-oxo-3-oxolanyl)pyrrolidin-2-yl]carbonyl]pyrrolidin-2-yl]ethyl]indole-6-carboxamidine]				34.7	22.3	775
CCOC(=O)CCCN1CCC[C@@H]1C(=O)N1CCC[C@H]1CCc1cc2ccc(C(=N)N)cc2n1CC [Compound 126, ethyl 4-[(R)-2-[[(S)-2-[2-(6-amidino-1-ethylindol-2-yl)ethyl]pyrrolidinyl]carbonyl]pyrrolidinyl]butanoate]		5.40			40.5	
CCn1c(CC[C@@H]2CCCN2C(=O)[C@H]2CCCN2CCCC(=O)O)cc2ccc(C(=N)N)cc21 [Compound 127, 4-[(R)-2-[[(S)-2-[2-(6-amidino-1-ethylindol-2-yl)ethyl]pyrrolidinyl]carbonyl]pyrrolidinyl]butanoic acid]		8.00			21.7	
CCn1c(CC[C@@H]2CCCN2C(=O)[C@H]2CCCN2C(=O)[C@H](C)N)cc2ccc(C(=N)N)cc21 [Compound 143, 1-ethyl-2-[2-[(S)-1-[[(R)-1-((S)-2-aminopropanoyl)pyrrolidin-2-yl]carbonyl]pyrrolidin-2-yl]ethyl]indole-6-carboxamidine]				75.2	5.46	410
CCn1c(CC[C@@H]2CCCN2C(=O)[C@H]2CCCN2C(=O)[C@H](C)NS(C)(=O)=O)cc2ccc(C(=N)N)cc21 [Compound 146, 1-ethyl-2-[2-[(S)-1-[[(R)-1-[(S)-2-(methanesulfonylamino)propanoyl]pyrrolidin-2-yl]carbonyl]pyrrolidin-2-yl]-ethyl]indole-6-carboxamidine]				21.0	22.1	464
CCn1c(CC[C@@H]2CCCN2C(=O)[C@H]2CCCN2C(=O)[C@@H](N)CC(N)=O)cc2ccc(C(=N)N)cc21 [Compound 148, 1-ethyl-2-[2-[(S)-1-[[(R)-1-((S)-2-amino-3-carbamoylpropanoyl)pyrrolidin-2-yl]carbonyl]pyrrolidin-2-yl]ethyl]indole-6-carboxamidine]				19.2	23	443
CCn1c(CC[C@@H]2CCCN2C(=O)[C@H]2CCCN2C(=O)[C@@H](N)CC(=O)O)cc2ccc(C(=N)N)cc21 [Compound 149, 4-[(R)-2-[[(S)-2-[2-(6-amidino-1-ethylindol-2-yl)ethyl]pyrrolidinyl]carbonyl]pyrrolidinyl]-(S)-3-amino-4-oxobutanoic acid]		9.24			10.4	
CCn1c(CCC2CCCN2C(=O)C2CCCN2C(=O)CC(NS(C)(=O)=O)C(N)=O)cc2ccc(C(=N)N)cc21 [Compound 162, 1-ethyl-2-[2-[(S)-1-[[1-[(R)-1-[3-carbamoyl-(S)-3-[(methanesulfonyl)amino]propanoyl]pyrrolidin-2-yl]carbonyl]pyrrolidin-2-yl]ethyl]indole-6-carboxamidine]				45.0	7.3	329
CCn1c(CC[C@@H]2CCCN2C(=O)[C@H]2CCCN2C(=O)CCCN)cc2ccc(C(=N)N)cc21 [Compound 166, 1-ethyl-2-[2-[(S)-1-[[(R)-1-(4-aminobutanoyl)pyrrolidin-2-yl]carbonyl]pyrrolidin-2-yl]ethyl]indole-6-carboxamidine]				18.6	33.1	617
CCn1c(CC[C@@H]2CCCN2C(=O)[C@H]2CCCN2C(=O)C2CCCCN2)cc2ccc(C(=N)N)cc21 (stereo partly drawn) [Compound 167, 1-ethyl-2-[2-[(S)-1-[[(R)-1-[(2-piperidyl)carbonyl]pyrrolidin-2-yl]carbonyl]pyrrolidin-2-yl]ethyl]indole-6-carboxamidine]				17.6	18.3	322
CC(=O)N1CCC[C@@H]1C(=O)N1CCC[C@H]1CCc1cc2ccc(C(=N)N)cc2n1C [Compound 170, 1-methyl-2-[2-[(S)-1-[((R)-1-acetylpyrrolidin-2-yl)-carbonyl]pyrrolidin-2-yl]ethyl]indole-6-carboxamidine]				31.9	33.5	1070
CCn1c(CC[C@@H]2CCCN2C(=O)[C@H]2CCCN2C(=O)CCC(=O)O)cc2ccc(C(=N)N)cc21 [Compound 177]				26.6	18.8	500
CCn1c(CC[C@@H]2CCCN2C(=O)[C@H]2CCCN2C(=O)CC(C)O)cc2ccc(C(=N)N)cc21 (stereo partly drawn) [Compound 180, 1-ethyl-2-[2-[(S)-1-[[(R)-1-(3-hydroxybutanoyl)pyrrolidin-2-yl]carbonyl]pyrrolidin-2-yl]-ethyl]indole-6-carboxamidine]				31.8	11	351
C=CC(=O)N1CCC[C@@H]1C(=O)N1CCC[C@H]1CCc1cc2ccc(C(=N)N)cc2n1CC [Compound 182, 1-ethyl-2-[2-[(S)-1-[((R)-1-prop-2-enoyl-pyrrolidin-2-yl)carbonyl]pyrrolidin-2-yl]ethyl]indole-6-carboxamidine]				30.0	10.1	304
CCn1c(CC[C@@H]2CCCN2C(=O)[C@H]2CCCN2S(C)(=O)=O)cc2ccc(C(=N)N)cc21 [Compound 184, 1-ethyl-2-[2-[(S)-1-[[(R)-1-(methanesulfonyl)pyrrolidin-2-yl]carbonyl]pyrrolidin-2-yl]ethyl]indole-6-carboxamidine]				57.9	9.51	551
CCOC(=O)CN1CCC[C@@H]1C(=O)N1CCC[C@H]1CCc1cc2ccc(C(=N)NC(=O)OCC)cc2n1CC [Compound 267, ethyl 2-[(R)-2-[[(S)-2-[2-[1-ethyl-6-[(ethoxycarbonylamino)iminomethyl]indol-2-yl]ethyl]pyrrolidinyl]carbonyl]pyrrolidinyl]acetate]		4.48				
CCOC(=O)CN1CCC[C@@H]1C(=O)N1CCC[C@H]1CCc1cc2ccc(C(=N)NC(=O)OC(C)C)cc2n1CC [Compound 270, ethyl 2-[(R)-2-[[(S)-2-[2-[1-ethyl-6-[imino[(methylethoxy)carbonylamino]methyl]indol-2-yl]ethyl]pyrrolidinyl]carbonyl]pyrrolidinyl]acetate]	1.46	4.30				
CCOC(=O)CN1CCCC1C(=O)N1CCCC1CCc1cc2ccc(C(=N)NC(=O)OC(Cl)(Cl)Cl)cc2n1CC [Compound 272, ethyl 2-[(R)-2-[[(S)-2-[2-[6-[[(trichloromethoxy)carbonylamino]iminomethyl]-1-ethylindol-2-yl]ethyl]pyrrolidinyl]carbonyl]pyrrolidinyl]acetate]	1.76	2.84				
